Data from patent US20240270762A1, “PENICILLIN-BINDING PROTEIN INHIBITORS” (priority 2021, published 2024).
pIC50: −log10 of the molar value. Values after ≈ are worked out from the molar mass of the structure shown.

Columns and labels:
A. baumannii CDC-0036 = assay: microbe, parasite or virus in culture; type: cell-based; details: Acinetobacter baumannii, CDC0036, read-out: MIC, A. baumannii CDC-0036
P. aeruginosa CDC-0095 = assay: microbe, parasite or virus in culture; type: cell-based; details: Pseudomonas aeruginosa, CDC0095, read-out: Minimum inhibitory concentration, P. aeruginosa CDC-0095
[1] = tested on: N. gonorrhoeae ATCC 49226; assay: Liquid broth MIC in Fastidious broth; details: Neisseria gonorrhoeae, ATCC49226, read-out: Minimum Inhibitory Concentration, ATCC 49226
N. gonorrhoeae WHO X = assay: Liquid broth MIC in Fastidious broth; details: Neisseria gonorrhoeae, read-out: Minimum Inhibitory Concentration, WHO X
N. gonorrhoeae CDC-0197 = assay: Liquid broth MIC in Fastidious broth; details: Neisseria gonorrhoeae, CDC0197, read-out: Minimum Inhibitory Concentration, CDC-0197
N. gonorrhoeae MS11 = assay: Liquid broth MIC in Fastidious broth; details: Neisseria gonorrhoeae, MS11, read-out: Minimum Inhibitory Concentration, MS11
[2] = target: T1, PBP3 from Pseudomonas aeruginosa (PAO1) (Pseudomonas aeruginosa, UniProt G3XD46); assay: Bocillin-FL fluorescence polarization competition binding, P. aeruginosa PBP3; details: Binding affinity to P. aeruginosa PBP3; fluorescence polarization competition binding assay using Bocillin-FL; read-out: P. aeruginosa PBP3 Potency
T1 construct: made in house
T1 sequence (G3XD46 whole entry): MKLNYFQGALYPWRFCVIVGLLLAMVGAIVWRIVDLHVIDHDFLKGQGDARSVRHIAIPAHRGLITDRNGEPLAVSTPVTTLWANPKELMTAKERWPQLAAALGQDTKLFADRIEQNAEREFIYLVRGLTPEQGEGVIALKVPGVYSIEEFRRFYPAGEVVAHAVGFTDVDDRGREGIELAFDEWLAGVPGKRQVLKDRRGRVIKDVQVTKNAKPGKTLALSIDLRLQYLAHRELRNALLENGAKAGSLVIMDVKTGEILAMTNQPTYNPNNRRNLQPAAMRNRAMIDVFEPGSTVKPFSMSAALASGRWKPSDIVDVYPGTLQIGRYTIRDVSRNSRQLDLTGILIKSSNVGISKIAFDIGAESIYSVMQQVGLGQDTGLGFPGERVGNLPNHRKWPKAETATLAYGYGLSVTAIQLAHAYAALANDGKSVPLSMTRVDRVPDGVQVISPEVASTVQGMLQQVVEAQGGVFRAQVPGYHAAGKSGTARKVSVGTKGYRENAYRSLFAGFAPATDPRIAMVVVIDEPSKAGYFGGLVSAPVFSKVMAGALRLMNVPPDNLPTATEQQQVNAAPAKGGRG
Method in brief: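 Purified PBP was preincubated with inhibitor (E. coli PBP3 1.5 μM, 30 min; P. aeruginosa PBP3 0.75 μM, A. baumannii PBP3 0.2 μM and PBP1a 1 μM, 15 min), then Bocillin-FL (0.1 μM; 0.05 μM for PBP1a) added and FP read up to 60 min. EC50 = 50% loss of bound probe.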

A. baumannii ATCC 17978 = assay: microbe, parasite or virus in culture; type: cell-based; details: Acinetobacter baumannii, ATCC17978, read-out: MIC, A. baumannii ATCC 17978
P. aeruginosa CDC-0110 = assay: microbe, parasite or virus in culture; type: cell-based; details: Pseudomonas aeruginosa, CDC0110, read-out: Minimum inhibitory concentration, P. aeruginosa CDC-0110
A. baumannii 1258916 = assay: microbe, parasite or virus in culture; type: cell-based, Acinetobacter baumannii; details: Acinetobacter baumannii, 1258916, read-out: MIC, A. baumannii 1258916
P. aeruginosa ATCC 35151 = assay: microbe, parasite or virus in culture; type: cell-based; details: Pseudomonas aeruginosa, ATCC35151, read-out: Minimum inhibitory concentration, P. aeruginosa ATCC 35151
A. baumannii ATCC 19606 = assay: microbe, parasite or virus in culture; type: cell-based; details: Acinetobacter baumannii, ATCC19606, read-out: MIC, A. baumannii ATCC 19606
N. gonorrhoeae WHO M = assay: Liquid broth MIC in Fastidious broth; details: Neisseria gonorrhoeae, read-out: Minimum Inhibitory Concentration, WHO M
A. baumannii CDC-0083 = assay: microbe, parasite or virus in culture; type: cell-based; details: Acinetobacter baumannii, CDC0083, read-out: MIC, A. baumannii CDC-0083
A. baumannii CDC-0033 = assay: microbe, parasite or virus in culture; type: cell-based; details: Acinetobacter baumannii, CDC0033, read-out: MIC, A. baumannii CDC-0033

SMILES | MIC (A. baumannii CDC-0036) [µg/mL] | MIC (P. aeruginosa CDC-0095) [µg/mL] | MIC [1] [µg/mL] | MIC (N. gonorrhoeae WHO X) [µg/mL] | MIC (N. gonorrhoeae CDC-0197) [µg/mL] | MIC (N. gonorrhoeae MS11) [µg/mL] | pIC50 [2] | MIC (A. baumannii ATCC 17978) [µg/mL] | MIC (P. aeruginosa CDC-0110) [µg/mL] | MIC (A. baumannii 1258916) [µg/mL] | MIC (P. aeruginosa ATCC 35151) [µg/mL] | MIC (A. baumannii ATCC 19606) [µg/mL] | MIC (N. gonorrhoeae WHO M) [µg/mL] | MIC (A. baumannii CDC-0083) [µg/mL] | MIC (A. baumannii CDC-0033) [µg/mL]
O=C(NCCN1CCN(C(=O)NC(C(=O)N[C@H]2Cc3ccc(F)c(C(=O)O)c3OB2O)c2cc(F)c(O)c(O)c2Cl)C1=O)c1cccnc1 (stereo partly drawn) [Example 246, (3R)-3-(2-(2-chloro-5-fluoro-3,4-dihydroxyphenyl)-2-(3-(2-(nicotinamido)ethyl)-2-oxoimidazolidine-1-carboxamido)acetamido)-7-fluoro-2-hydroxy-3,4-dihydro-2H-benzo[e][1,2]oxaborinine-8-carboxylic acid] | 2 to 4 (≈ 2.85 to 5.69 µM) | 2 to 4 (≈ 2.85 to 5.69 µM) | 16 to 32 (≈ 22.8 to 45.5 µM) | > 64 | > 64 | 16 to 32 (≈ 22.8 to 45.5 µM) | > 5.00 | < 1 | < 1 | < 1 | < 1 | < 1 | 16 to 32 (≈ 22.8 to 45.5 µM) | < 1 | 2 to 4 (≈ 2.85 to 5.69 µM)
O=C(NCCN1CCN(C(=O)NC(C(=O)N[C@H]2Cc3ccc(F)c(C(=O)O)c3OB2O)c2cc(F)c(O)c(O)c2Cl)C1=O)c1nccs1 (stereo partly drawn) [Example 247, (3R)-3-(2-(2-chloro-5-fluoro-3,4-dihydroxyphenyl)-2-(2-oxo-3-(2-(thiazole-2-carboxamido)ethyl)imidazolidine-1-carboxamido)acetamido)-7-fluoro-2-hydroxy-3,4-dihydro-2H-benzo[e][1,2]oxaborinine-8-carboxylic acid] | < 1 | 2 to 4 (≈ 2.82 to 5.64 µM) | 16 to 32 (≈ 22.6 to 45.1 µM) | > 64 | > 64 | 16 to 32 (≈ 22.6 to 45.1 µM) | > 5.00 | < 1 | < 1 | < 1 | < 1 | < 1 | 16 to 32 (≈ 22.6 to 45.1 µM) | < 1 | 2 to 4 (≈ 2.82 to 5.64 µM)
O=C(O)c1c(F)ccc2c1OB(O)[C@@H](NC(=O)C(NC(=O)N1CCN(CCNC(=O)[C@@H]3CCCN3)C1=O)c1cc(F)c(O)c(O)c1Cl)C2 (stereo partly drawn) [Example 248, (3R)-3-(2-(2-chloro-5-fluoro-3,4-dihydroxyphenyl)-2-(2-oxo-3-(2-((S)-pyrrolidine-2-carboxamido)ethyl)imidazolidine-1-carboxamido)acetamido)-7-fluoro-2-hydroxy-3,4-dihydro-2H-benzo[e][1,2]oxaborinine-8-carboxylic acid] | 2 to 4 (≈ 2.88 to 5.76 µM) | 8 to 16 (≈ 11.5 to 23 µM) | 16 to 32 (≈ 23 to 46.1 µM) | > 64 | 16 to 32 (≈ 23 to 46.1 µM) | 16 to 32 (≈ 23 to 46.1 µM) | 4.30 to 5.00 | < 1 | < 1 | < 1 | < 1 | < 1 | 4 to 8 (≈ 5.76 to 11.5 µM) | < 1 | 2 to 4 (≈ 2.88 to 5.76 µM)
O=C(NCCN1CCN(C(=O)NC(C(=O)N[C@H]2Cc3ccc(F)c(C(=O)O)c3OB2O)c2cc(F)c(O)c(O)c2Cl)C1=O)Nc1cccc(O)c1 (stereo partly drawn) [Example 249, (3R)-3-(2-(2-chloro-5-fluoro-3,4-dihydroxyphenyl)-2-(3-(2-(3-(3-hydroxyphenyl)ureido)ethyl)-2-oxoimidazolidine-1-carboxamido)acetamido)-7-fluoro-2-hydroxy-3,4-dihydro-2H-benzo[e][1,2]oxaborinine-8-carboxylic acid] | 2 to 4 (≈ 2.73 to 5.46 µM) | 32 to 64 (≈ 43.7 to 87.3 µM) | 16 to 32 (≈ 21.8 to 43.7 µM) | > 64 | > 64 | 16 to 32 (≈ 21.8 to 43.7 µM) | > 5.00 | < 1 | < 1 | < 1 | < 1 | < 1 | 16 to 32 (≈ 21.8 to 43.7 µM) | < 1 | 2 to 4 (≈ 2.73 to 5.46 µM)
O=C(NCCN1CCN(C(=O)NC(C(=O)N[C@H]2Cc3ccc(F)c(C(=O)O)c3OB2O)c2cc(F)c(O)c(O)c2Cl)C1=O)Nc1ccncc1 (stereo partly drawn) [Example 250, (3R)-3-(2-(2-chloro-5-fluoro-3,4-dihydroxyphenyl)-2-(2-oxo-3-(2-(3-(pyridin-4-yl)ureido)ethyl)imidazolidine-1-carboxamido)acetamido)-7-fluoro-2-hydroxy-3,4-dihydro-2H-benzo[e][1,2]oxaborinine-8-carboxylic acid] | 2 to 4 (≈ 2.79 to 5.57 µM) | 32 to 64 (≈ 44.6 to 89.2 µM) | > 64 | > 64 | > 64 | 16 to 32 (≈ 22.3 to 44.6 µM) | > 5.00 | < 1 | 2 to 4 (≈ 2.79 to 5.57 µM) | < 1 | < 1 | < 1 | 16 to 32 (≈ 22.3 to 44.6 µM) | < 1 | 2 to 4 (≈ 2.79 to 5.57 µM)
O=C(NCCN1CCN(C(=O)NC(C(=O)N[C@H]2Cc3ccc(F)c(C(=O)O)c3OB2O)c2cc(F)c(O)c(O)c2Cl)C1=O)Nc1cccnc1 (stereo partly drawn) [Example 251, (3R)-3-(2-(2-chloro-5-fluoro-3,4-dihydroxyphenyl)-2-(2-oxo-3-(2-(3-(pyridin-3-yl)ureido)ethyl)imidazolidine-1-carboxamido)acetamido)-7-fluoro-2-hydroxy-3,4-dihydro-2H-benzo[e][1,2]oxaborinine-8-carboxylic acid] | 2 to 4 (≈ 2.79 to 5.57 µM) | 8 to 16 (≈ 11.1 to 22.3 µM) | 16 to 32 (≈ 22.3 to 44.6 µM) | > 64 | > 64 | 16 to 32 (≈ 22.3 to 44.6 µM) | > 5.00 | < 1 | < 1 | < 1 | < 1 | < 1 | 16 to 32 (≈ 22.3 to 44.6 µM) | 2 to 4 (≈ 2.79 to 5.57 µM) | 2 to 4 (≈ 2.79 to 5.57 µM)
O=C(NCCCN1CCN(C(=O)N[C@H](C(=O)N[C@H]2Cc3ccc(F)c(C(=O)O)c3OB2O)c2cc(F)c(O)c(O)c2Cl)C1=O)c1ccccc1 [Example 252, (R)-3-((S)-2-(3-(3-benzamidopropyl)-2-oxoimidazolidine-1-carboxamido)-2-(2-chloro-5-fluoro-3,4-dihydroxyphenyl)acetamido)-7-fluoro-2-hydroxy-3,4-dihydro-2H-benzo[e][1,2]oxaborinine-8-carboxylic acid] | > 128 | > 128 | > 64 | > 64 | > 64 | > 64 | < 3.60 | 8 to 16 (≈ 11.2 to 22.4 µM) | > 128 | > 128 | 2 to 4 (≈ 2.79 to 5.59 µM) | > 128 | > 64 | > 128 | > 128
O=C(NCCCN1CCN(C(=O)N[C@@H](C(=O)N[C@H]2Cc3ccc(F)c(C(=O)O)c3OB2O)c2cc(F)c(O)c(O)c2Cl)C1=O)c1ccccc1 [Example 253, (R)-3-((R)-2-(3-(3-benzamidopropyl)-2-oxoimidazolidine-1-carboxamido)-2-(2-chloro-5-fluoro-3,4-dihydroxyphenyl)acetamido)-7-fluoro-2-hydroxy-3,4-dihydro-2H-benzo[e][1,2]oxaborinine-8-carboxylic acid] | < 1 | 2 to 4 (≈ 2.79 to 5.59 µM) | 16 to 32 (≈ 22.4 to 44.7 µM) | > 64 | > 64 | 16 to 32 (≈ 22.4 to 44.7 µM) | > 5.00 | < 1 | 2 to 4 (≈ 2.79 to 5.59 µM) | < 1 | < 1 | < 1 | 4 to 8 (≈ 5.59 to 11.2 µM) | < 1 | < 1
O=C(NCCCN1CCN(C(=O)N[C@H](C(=O)N[C@H]2Cc3ccc(F)c(C(=O)O)c3OB2O)c2cc(F)c(O)c(O)c2Cl)C1=O)c1cccc(O)c1 [Example 254, (R)-3-((S)-2-(2-chloro-5-fluoro-3,4-dihydroxyphenyl)-2-(3-(3-(3-hydroxybenzamido)propyl)-2-oxoimidazolidine-1-carboxamido)acetamido)-7-fluoro-2-hydroxy-3,4-dihydro-2H-benzo[e][1,2]oxaborinine-8-carboxylic acid] | > 128 | > 128 | > 64 | > 64 | > 64 | > 64 | 3.60 to 4.30 | 2 to 4 (≈ 2.73 to 5.47 µM) | > 128 | > 128 | < 1 | 8 to 16 (≈ 10.9 to 21.9 µM) | > 64 | > 128 | 32 to 64 (≈ 43.7 to 87.4 µM)
